Results taken from patent publication US9676793B2, “Co-crystals of 5-amino-2-oxothiazolo[4,5-d]pyrimidin-3(2H)-yl-5-hydroxymethyl tetrahydrofuran-3-yl acetate and methods for preparing and using the same” (Hoffmann-La Roche Inc., priority 2014, dated 2017).
Where two headings read alike, the source gives them in different places.

Legend:
[1] = Cell viability by CellTiter-Glo, direct treatment; type: cell-based; details: human; for cytotoxicity at 7 days, 0.82 μM / cytotoxicity at 7 days, 2.47 μM / cytotoxicity at 7 days, 7.41 μM / cytotoxicity at 7 days, 22.22 μM / cytotoxicity at 7 days, 66.67 μM / cytotoxicity at 7 days, 200 μM: read-out: Cell viability (% inhibition)
[2] = system: HBV infected HepaRGd cells; assay: Cell viability by CellTiter-Glo, direct treatment; type: cell-based; details: for CC50: read-out: EC/CC50 (μM), Cell viability
[3] = system: HBV; assay: Indirect inhibition of HBV replication by conditioned media from stimulated PBMCs; type: cell-based, HBV (genotype D, strain ayw)
Method: TLR-7 agonists stimulate the production cytokines and chemokines from human PBMC's. Conditioned medium was obtained by contacting cultured PBMC's with DMSO (control) or 100 μM R06871765 (drug) was contacted with HBV infected HepaRGd cells.
HBV infected HepaRGd cells were incubated with various dilutions of conditioned media collected from PBMCs isolated from healthy donors—donor 70615 (graphs A-D) and donor 77726 (graphs E, F). The PBMC's from each donor were stimulated with either DMSO (graphs A, C, E) or 100 μM R06871765 (graphs B, D, F). […] Three experiments were performed. In the first experiment (FIGS. 4A, 4B), conditioned media from PBMCs (donor 70615) was first diluted 10-fold using differentiation media, and then serially diluted in 3-fold increments prior to addition of each of the diluted conditioned medium to HBV infected HepaRGd cells. In the second experiment (FIGS. 4C, 4D), conditioned media from PBMCs (donor 70615) was first diluted 5-fold using differentiation media, and then serially diluted in 5-fold increments prior to addition to HBV infected HepaRGd cells. In the third experiment (FIGS. 4E, 4F), conditioned media from PBMCs (donor 77726) was first diluted 5-fold using differentiation media, and then serially diluted in 5-fold increments prior to addition to HBV infected HepaRGd cells. The HBV replication inhibitory activity for control and R06871765 treated cells was determined by monitoring the levels of HBV DNA and HBsAg secreted in culture medium.

[4] = conditioned media of PBMCs stimulated with 100 μM
[5] = conditioned media of PBMCs stimulated with 100 μM, Feb. 28, 2013 donor 77726
[6] = conditioned media of PBMCs stimulated with 100 μM, Jan. 3, 2013 donor 70615
[7] = conditioned media of PBMCs stimulated with 100 μM, Nov. 12, 2012 donor 70615
[8] = stimulated PBMC conditioned media

Nc1nc2c(sc(=O)n2[C@@H]2O[C@H](CO)C[C@H]2O)c(=O)[nH]1 [R06871765]
cytotoxicity at 7 days, 0.82 μM ([1]; EXP ID 10/15/2012 AL): -2.58%
cytotoxicity at 7 days, 0.82 μM ([1]; EXP ID 10/15/2012 VL): 3.23%
cytotoxicity at 7 days, 2.47 μM ([1]; EXP ID 10/15/2012 AL): -2.57%
cytotoxicity at 7 days, 2.47 μM ([1]; EXP ID 10/15/2012 VL): 0.54%
cytotoxicity at 7 days, 7.41 μM ([1]; EXP ID 10/15/2012 AL): -2.85%
cytotoxicity at 7 days, 7.41 μM ([1]; EXP ID 10/15/2012 VL): -1.5%
cytotoxicity at 7 days, 22.22 μM ([1]; EXP ID 10/15/2012 AL): -2.43%
cytotoxicity at 7 days, 22.22 μM ([1]; EXP ID 10/15/2012 VL): -1.37%
cytotoxicity at 7 days, 66.67 μM ([1]; EXP ID 10/15/2012 AL): 3.7%
cytotoxicity at 7 days, 66.67 μM ([1]; EXP ID 10/15/2012 VL): 7.34%
cytotoxicity at 7 days, 200 μM ([1]; EXP ID 10/15/2012 AL): 12.3%
cytotoxicity at 7 days, 200 μM ([1]; EXP ID 10/15/2012 VL): 22%
CC50 at 7 days ([1]; HBV infected HepaRGd cells): > 200 µM
CC50 ([2]; EXP ID 10/15/2012 AL): > 200 µM
CC50 ([2]; EXP ID 10/15/2012 VL): > 200 µM
maximum reduction in viability ([2]; highest concentration (200 μM)): about 17%
EC50 converted fold dilution, HBV DNA secretion [3, 4]: 318 fold dilution
EC50 converted fold dilution, HBsAg secretion [3, 4]: 16 fold dilution
EC50 [log dilution], HBV DNA secretion [3, 5]: −2.1 log dilution
EC50 [log dilution], HBsAg secretion [3, 5]: −1.0 log dilution
EC50 [log dilution], HBV DNA secretion [3, 6]: −2.9 log dilution
EC50 [log dilution], HBsAg secretion [3, 6]: −1.4 log dilution
EC50 [log dilution], HBV DNA secretion [3, 7]: −2.5 log dilution
EC50 [log dilution], HBsAg secretion [3, 7]: <−1.0 log dilution
EC50 [log dilution], HBsAg secretion, Ave ± SD ([3]; conditioned media of PBMCs stimulated with 100 μM, average): −1.2 log dilution
EC50 [log dilution], HBV DNA secretion, Ave ± SD ([3]; conditioned media of PBMCs stimulated with 100 μM, average of three experiments): −2.5 ± 0.4 log dilution
average EC50 against HBV DNA [3, 8]: −2.5±0.4 log10
average EC50 against HBV surface antigen (HBsAg) secretion [3, 8]: −1.2 log10
